Test results taken from ChEMBL document CHEMBL1125697, “Synthesis and pharmacological examination of 1-(3-methoxy-4-methylphenyl)-2-aminopropane and 5-methoxy-6-methyl-2-aminoindan: similarities to 3,4-(methylenedioxy)methamphetamine (MDMA)” (J Med Chem, 1991).
pIC50: −log10 of the molar value. Where “and” joins values, the source holds several entries; their conditions need not be identical. Equal values may be shown once.

What was measured:
Rattus norvegicus [1] = experiment: Percentage of non disrupted rats that selected the drug lever, when given at a dose of 0.5 mg/kg; format: functional
Rattus norvegicus [2] = experiment: Momoamine and metabolic levels observed at 3 hr postdrug against, at a dose of 20 mg/kg Hippocampus 5-HIAA; format: ADME, organism-based; parameters: dose 20 mg/kg; conditions: in vivo
Rattus norvegicus [3] = experiment: Momoamine and metabolic levels observed at 3 hr postdrug against, at a dose of 20 mg/kg Frontal cortex DA; format: ADME, organism-based; parameters: dose 20 mg/kg; conditions: in vivo
Rattus norvegicus [4] = experiment: Momoamine and metabolic levels observed 1 week following acute dosing against at a dose of 20 mg/kg Frontal cortex NE; format: ADME, organism-based; parameters: dose 20 mg/kg; conditions: in vivo, 168 h
Rattus norvegicus [5] = experiment: Momoamine and metabolic levels observed 1 week following acute dosing at a dose of 10 mg/kg Frontal cortex 5-HT; format: ADME, organism-based; parameters: dose 10 mg/kg; conditions: in vivo, 168 h
Rattus norvegicus [6] = experiment: Momoamine and metabolic levels observed 2 weeks following sub-acute dosing against Frontal cortex HVA; format: ADME, organism-based; conditions: in vivo, 336 h
Rattus norvegicus [7] = experiment: Momoamine and metabolic levels observed 2 weeks following sub-acute dosing against Frontal cortex DA; format: ADME, organism-based; conditions: in vivo, 336 h
Rattus norvegicus [8] = experiment: Momoamine and metabolic levels observed 1 week following acute dosing against at a dose of 20 mg/kg Frontal cortex DOPAC; format: ADME, organism-based; parameters: dose 20 mg/kg; conditions: in vivo, 168 h
[9] = molecular target: Sodium-dependent serotonin transporter (Rattus norvegicus) (UniProt P31652); experiment: Number of uptake sites for [3H]paroxetine receptor binding after sub-acute dosing against Hippocampus
Rattus norvegicus [10] = experiment: Percentage of non disrupted rats that selected the drug lever, when given at a dose of 2.00 mg/kg in […]-Trained rats; format: functional
Rattus norvegicus [11] = experiment: Momoamine and metabolic levels observed 1 week following acute dosing at a dose of 10 mg/kg Frontal cortex 5-HIAA; format: ADME, organism-based; parameters: dose 10 mg/kg; conditions: in vivo, 168 h
Rattus norvegicus [12] = experiment: Momoamine and metabolic levels observed 1 week following acute dosing at a dose of 10 mg/kg Frontal cortex DA; format: ADME, organism-based; parameters: dose 10 mg/kg; conditions: in vivo, 168 h
Rattus norvegicus [13] = experiment: Momoamine and metabolic levels observed 1 week following acute dosing against at a dose of 10 mg/kg Hippocampus 5-HT; format: ADME, organism-based; parameters: dose 10 mg/kg; conditions: in vivo, 168 h
Rattus norvegicus [14] = experiment: Percentage of non disrupted rats that selected the drug lever, when given at a dose of 0.5 mg/kg in S-Amphetamine-Trained rats; format: functional
Rattus norvegicus [15] = experiment: Momoamine and metabolic levels observed 1 week following acute dosing against at a dose of 20 mg/kg Hippocampus 5-HT; format: ADME, organism-based; parameters: dose 20 mg/kg; conditions: in vivo, 168 h
Rattus norvegicus [16] = experiment: Percentage of non disrupted rats that selected the drug lever, when given at a dose of 0.5 mg/kg in […]-Trained rats; format: functional
Rattus norvegicus [17] = experiment: Momoamine and metabolic levels observed 2 weeks following sub-acute dosing against Frontal cortex 5-HT; format: ADME, organism-based; conditions: in vivo, 336 h
Rattus norvegicus [18] = experiment: Momoamine and metabolic levels observed at 3 hr postdrug against, at a dose of 20 mg/kg Frontal cortex NE; format: ADME, organism-based; parameters: dose 20 mg/kg; conditions: in vivo
Rattus norvegicus [19] = experiment: Effective dose was evaluated for drug discrimination in I-trained rats, when given at a dose of 1.16 micro mol/kg; format: functional
Rattus norvegicus [20] = experiment: Momoamine and metabolic levels observed at 3 hr postdrug against, at a dose of 20 mg/kg Frontal cortex 5-HIAA; format: ADME, organism-based; parameters: dose 20 mg/kg; conditions: in vivo
Rattus norvegicus [21] = experiment: Momoamine and metabolic levels observed 1 week following acute dosing against at a dose of 20 mg/kg Frontal cortex 5-HIAA; format: ADME, organism-based; parameters: dose 20 mg/kg; conditions: in vivo, 168 h
Rattus norvegicus [22] = experiment: Momoamine and metabolic levels observed 2 weeks following sub-acute dosing against Hippocampus 5-HT; format: ADME, organism-based; conditions: in vivo, 336 h
Rattus norvegicus [23] = experiment: Percentage of non disrupted rats that selected the drug lever, when given at a dose of 1.00 mg/kg; format: functional
Rattus norvegicus [24] = experiment: Momoamine and metabolic levels observed 1 week following acute dosing at a dose of 10 mg/kg Frontal cortex HVA; format: ADME, organism-based; parameters: dose 10 mg/kg; conditions: in vivo, 168 h
Rattus norvegicus [25] = experiment: Momoamine and metabolic levels observed at 3 hr postdrug against, at a dose of 20 mg/kg Frontal cortex DOPAC; format: ADME, organism-based; parameters: dose 20 mg/kg; conditions: in vivo
Rattus norvegicus [26] = experiment: Momoamine and metabolic levels observed 1 week following acute dosing against at a dose of 20 mg/kg Frontal cortex HVA; format: ADME, organism-based; parameters: dose 20 mg/kg; conditions: in vivo, 168 h
Rattus norvegicus [27] = experiment: Percentage of non disrupted rats that selected the drug lever, when given at a dose of 0.25 mg/kg; format: functional
Rattus norvegicus [28] = experiment: Momoamine and metabolic levels observed 1 week following acute dosing against at a dose of 10 mg/kg Hippocampus NE; format: ADME, organism-based; parameters: dose 10 mg/kg; conditions: in vivo, 168 h
Rattus norvegicus [29] = experiment: Percentage of non disrupted rats that selected the drug lever, when given at a dose of 2.50 mg/kg in […]-Trained rats; format: functional; conditions: dose 2.5 mg/kg
Rattus norvegicus [30] = experiment: Momoamine and metabolic levels observed 1 week following acute dosing against at a dose of 20 mg/kg Frontal cortex 5-HT; format: ADME, organism-based; parameters: dose 20 mg/kg; conditions: in vivo, 168 h
Rattus norvegicus [31] = experiment: Percentage of non disrupted rats that selected the drug lever, when given at a dose of 0.25 mg/kg in S-Amphetamine-Trained rats; format: functional
Rattus norvegicus [32] = experiment: Momoamine and metabolic levels observed 2 weeks following sub-acute dosing against Frontal cortex DOPAC; format: ADME, organism-based; conditions: in vivo, 336 h
Rattus norvegicus [33] = experiment: Effective dose was evaluated for drug discrimination in I-trained rats, when given at a dose of 0.25 mg/kg; format: functional
Rattus norvegicus [34] = experiment: Momoamine and metabolic levels observed 2 weeks following sub-acute dosing against Frontal cortex 5-HIAA; format: ADME, organism-based; conditions: in vivo, 336 h
Rattus norvegicus [35] = experiment: Momoamine and metabolic levels observed 2 weeks following sub-acute dosing against Hippocampus 5-HIAA; format: ADME, organism-based; conditions: in vivo, 336 h
Rattus norvegicus [36] = experiment: Momoamine and metabolic levels observed 1 week following acute dosing against at a dose of 20 mg/kg Hippocampus NE; format: ADME, organism-based; parameters: dose 20 mg/kg; conditions: in vivo, 168 h
Rattus norvegicus [37] = experiment: Momoamine and metabolic levels observed 1 week following acute dosing at a dose of 10 mg/kg Hippocampus 5-HIAA; format: ADME, organism-based; parameters: dose 10 mg/kg; conditions: in vivo, 168 h
Rattus norvegicus [38] = experiment: Momoamine and metabolic levels observed 1 week following acute dosing against at a dose of 20 mg/kg Frontal cortex DA; format: ADME, organism-based; parameters: dose 20 mg/kg; conditions: in vivo, 168 h
Rattus norvegicus [39] = experiment: Momoamine and metabolic levels observed 1 week following acute dosing at a dose of 10 mg/kg Frontal cortex DOPAC; format: ADME, organism-based; parameters: dose 10 mg/kg; conditions: in vivo, 168 h
Rattus norvegicus [40] = experiment: Effective dose was evaluated for drug discrimination in I-trained rats, when given at a dose of 0.25 micro mol/kg; format: functional
Rattus norvegicus [41] = experiment: Momoamine and metabolic levels observed at 3 h postdrug against, at a dose of 20 mg/kg Hippocampus 5-HT; format: ADME, organism-based; parameters: dose 20 mg/kg; conditions: in vivo
Rattus norvegicus [42] = organism: Rattus norvegicus; experiment: Compound was evaluated for the uptake inhibition of [3H]-5-HT in rats; format: functional
Rattus norvegicus [43] = experiment: Percentage of non disrupted rats that selected the drug lever, when given at a dose of 1.00 mg/kg in […]-Trained rats; format: functional
Rattus norvegicus [44] = experiment: Percentage of non disrupted rats that selected the drug lever, when given at a dose of 1.00 mg/kg in S-Amphetamine-Trained rats; format: functional
Rattus norvegicus [45] = experiment: Percentage of non disrupted rats that selected the drug lever, when given at a dose of 2.00 mg/kg; format: functional
Rattus norvegicus [46] = experiment: Momoamine and metabolic levels observed at 3 hr postdrug against, at a dose of 20 mg/kg Frontal cortex 5-HT; format: ADME, organism-based; parameters: dose 20 mg/kg; conditions: in vivo
Rattus norvegicus [47] = experiment: Momoamine and metabolic levels observed 1 week following acute dosing at a dose of 10 mg/kg Frontal cortex NE; format: ADME, organism-based; parameters: dose 10 mg/kg; conditions: in vivo, 168 h
Rattus norvegicus [48] = experiment: Momoamine and metabolic levels observed 2 weeks following sub-acute dosing against Frontal cortex NE; format: ADME, organism-based; conditions: in vivo, 336 h
Rattus norvegicus [49] = experiment: Momoamine and metabolic levels observed at 3 hr postdrug against, at a dose of 20 mg/kg Frontal cortex HVA; format: ADME, organism-based; parameters: dose 20 mg/kg; conditions: in vivo
Rattus norvegicus [50] = experiment: Momoamine and metabolic levels observed at 3 hr postdrug against, at a dose of 20 mg/kg Hippocampus NE; format: ADME, organism-based; parameters: dose 20 mg/kg; conditions: in vivo
Rattus norvegicus [51] = experiment: Momoamine and metabolic levels observed 1 week following acute dosing against at a dose of 20 mg/kg Hippocampus 5-HIAA; format: ADME, organism-based; parameters: dose 20 mg/kg; conditions: in vivo, 168 h
[52] = molecular target: Sodium-dependent serotonin transporter (Rattus norvegicus) (UniProt P31652); experiment: Number of uptake sites for [3H]paroxetine receptor binding after sub-acute dosing against Frontal cortex; format: tissue-based
Rattus norvegicus [53] = experiment: Momoamine and metabolic levels observed 2 weeks following sub-acute dosing against Hippocampus NE; format: ADME, organism-based; conditions: in vivo, 336 h
Rattus norvegicus [54] = experiment: Percentage of non disrupted rats that selected the drug lever, when given at a dose of 0.75 mg/kg; format: functional
Rattus norvegicus [55] = organism: Rattus norvegicus; experiment: Effective dose was evaluated for drug discrimination in I-trained rats; format: functional
[56] = Rattus norvegicus, read-out: ED50

Sodium-dependent serotonin transporter (Rattus norvegicus), sequence (P31652 whole entry): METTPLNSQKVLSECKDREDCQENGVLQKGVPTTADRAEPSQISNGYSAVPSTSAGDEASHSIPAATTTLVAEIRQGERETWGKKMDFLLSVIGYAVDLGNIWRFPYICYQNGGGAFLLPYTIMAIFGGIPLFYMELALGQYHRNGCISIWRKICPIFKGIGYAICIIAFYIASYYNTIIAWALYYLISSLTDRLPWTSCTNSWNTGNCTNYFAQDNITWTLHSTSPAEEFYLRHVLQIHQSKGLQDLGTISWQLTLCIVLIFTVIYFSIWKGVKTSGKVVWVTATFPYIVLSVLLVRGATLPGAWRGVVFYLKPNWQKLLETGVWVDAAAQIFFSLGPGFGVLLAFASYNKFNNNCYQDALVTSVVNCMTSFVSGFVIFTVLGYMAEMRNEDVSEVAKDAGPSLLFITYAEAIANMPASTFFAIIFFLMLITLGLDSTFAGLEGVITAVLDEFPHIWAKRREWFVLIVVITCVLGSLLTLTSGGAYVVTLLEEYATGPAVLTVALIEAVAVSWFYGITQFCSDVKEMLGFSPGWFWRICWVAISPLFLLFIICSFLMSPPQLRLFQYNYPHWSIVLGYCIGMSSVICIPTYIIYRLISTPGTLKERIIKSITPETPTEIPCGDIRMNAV

Structure (SMILES): COc1ccc2c(c1C)CC(N)C2 (configuration not stated)
- SDL (Rattus norvegicus [1]): 25%
- Metabolite level (Rattus norvegicus [2]): 272
- Metabolite level (Rattus norvegicus [3]): 113
- Metabolite level (Rattus norvegicus [4]): 509
- Metabolite level (Rattus norvegicus [5]): 312
- Metabolite level (Rattus norvegicus [6]): 59
- Metabolite level (Rattus norvegicus [7]): 92
- Metabolite level (Rattus norvegicus [8]): 35
- No. of uptake sites [9]: 15.6
- SDL (Rattus norvegicus [10]): 38%
- Metabolite level (Rattus norvegicus [11]): 210
- Metabolite level (Rattus norvegicus [12]): 88
- Metabolite level (Rattus norvegicus [13]): 312
- SDL (Rattus norvegicus [14]): 33%
- Metabolite level (Rattus norvegicus [15]): 462
- SDL (Rattus norvegicus [16]): 11%
- Metabolite level (Rattus norvegicus [17]): 415
- Metabolite level (Rattus norvegicus [18]): 558
- ED50 (Rattus norvegicus [19]): 3.77 µmol/kg
- Metabolite level (Rattus norvegicus [20]): 146
- Metabolite level (Rattus norvegicus [21]): 240
- Metabolite level (Rattus norvegicus [22]): 434
- SDL (Rattus norvegicus [23]): 75%
- Metabolite level (Rattus norvegicus [24]): 74
- Metabolite level (Rattus norvegicus [25]): 40
- Metabolite level (Rattus norvegicus [26]): 65
- SDL (Rattus norvegicus [27]): 13%
- Metabolite level (Rattus norvegicus [28]): 633
- SDL (Rattus norvegicus [29]): 50%
- Metabolite level (Rattus norvegicus [30]): 316
- SDL (Rattus norvegicus [31]): 17%
- Metabolite level (Rattus norvegicus [32]): 54
- ED50 (Rattus norvegicus [33]; [56]): 0.81 mg/kg
- ED50 (Rattus norvegicus [33]; dose 0.25 mg/kg): 0.56 mg/kg
- Metabolite level (Rattus norvegicus [34]): 256
- Metabolite level (Rattus norvegicus [35]): 518
- Metabolite level (Rattus norvegicus [36]): 583
- Metabolite level (Rattus norvegicus [37]): 434
- Metabolite level (Rattus norvegicus [38]): 81
- Metabolite level (Rattus norvegicus [39]): 36
- ED50 (Rattus norvegicus [40]): 2.63 µmol/kg
- Metabolite level (Rattus norvegicus [41]): 256
- pIC50 (Rattus norvegicus [42]): 6.67
- SDL (Rattus norvegicus [43]): 13%
- SDL (Rattus norvegicus [44]): 50%
- SDL (Rattus norvegicus [45]): 100%
- Metabolite level (Rattus norvegicus [46]): 148
- Metabolite level (Rattus norvegicus [47]): 414
- Metabolite level (Rattus norvegicus [48]): 568
- Metabolite level (Rattus norvegicus [49]): 112
- Metabolite level (Rattus norvegicus [50]): 646
- Metabolite level (Rattus norvegicus [51]): 476
- No. of uptake sites [52]: 13.6
- Metabolite level (Rattus norvegicus [53]): 716

Structure (SMILES): COc1cc(C[C@H](C)N)ccc1C
- SDL (Rattus norvegicus [1]): 33%
- ED50 (Rattus norvegicus [19]): 2.14 µmol/kg
- SDL (Rattus norvegicus [27]): 17%
- SDL (Rattus norvegicus [54]): 100%
- ED50 (Rattus norvegicus [33]; [56]): 0.46 mg/kg
- pIC50 (Rattus norvegicus [42]): 7.00

Structure (SMILES): C[C@H](N)Cc1ccccc1 [DEXTROAMPHETAMINE]
- ED50 (Rattus norvegicus [55]): 0.31 mg/kg and 1.69 µmol/kg

Structure (SMILES): CCN(CC)C(=O)[C@@H]1C=C2c3cccc4[nH]cc(c34)C[C@H]2N(C)C1 [LYSERGIDE]
- ED50 (Rattus norvegicus [55]): 0.025 mg/kg and 0.058 µmol/kg
